What was measured:
Test in all cases: relative viability (nuclei count vs DMSO), 5 days (fraction); higher = more cells survive
[1] = tested on: SK-LU-1
In short: (§1)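 For relative viability, nuclei counts in treated wells were divided by those in vehicle wells. Lung cancer cell lines had been pin-tool dosed in 1536-well plates the day after seeding and cultured for 5 days, then fixed and stained in one step (final 0.05% Triton X-100, 1% formaldehyde, 1 ug/ml Hoechst) and imaged at 4×. Doses were one drug alone or a fixed anchor-drug dose plus five library-drug doses (not always all listed) in √10 steps, and values are duplicate-plate medians.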

[2] = tested on: NCI-H2228
In short: as §1

[3] = tested on: LOU-NH91
In short: as §1

[4] = tested on: NCI-H661
In short: as §1

[5] = tested on: NCI-H2170
In short: as §1

[6] = tested on: LC-2-ad
In short: as §1

[7] = tested on: NCI-H596
In short: as §1

[8] = tested on: SK-MES-1
In short: as §1

[9] = tested on: NCI-H1395
In short: as §1

[10] = tested on: BEN
In short: as §1

[11] = tested on: NCI-H2087
In short: as §1

[12] = tested on: NCI-H1734
In short: as §1

[13] = tested on: NCI-H2405
In short: as §1

[14] = tested on: NCI-H2342
In short: as §1

[15] = tested on: NCI-H647
In short: as §1

[16] = tested on: HARA
In short: as §1

[17] = tested on: EKVX
In short: as §1

[18] = tested on: HCC-827
In short: as §1

[19] = tested on: NCI-H1355
In short: as §1

[20] = tested on: HCC-366
In short: as §1

[21] = tested on: NCI-H2009
In short: as §1

[22] = tested on: NCI-H1437
In short: as §1

SMILES: NC(=O)Nc1cc(-c2cccc(F)c2)sc1C(=O)N[C@H]1CCCNC1 [AZD7762] + Cc1cc(Nc2cc(N3CCN(C)CC3)nc(Sc3ccc(NC(=O)C4CC4)cc3)n2)n[nH]1 [Tozasertib] (partner 0.1 µM)
- relative viability ([1]; first compound 0.01 µM): 0.374
- relative viability ([1]; first compound 0.03162 µM): 0.246
- relative viability ([1]; first compound 0.1 µM): 0.17
- relative viability ([1]; first compound 0.3162 µM): 0.128
- relative viability ([1]; first compound 1 µM): 0.142
- relative viability ([2]; first compound 0.01 µM): 0.274
- relative viability ([2]; first compound 0.03162 µM): 0.464
- relative viability ([2]; first compound 0.1 µM): 0.321
- relative viability ([2]; first compound 0.3162 µM): 0.245
- relative viability ([2]; first compound 1 µM): 0.121
- relative viability ([3]; first compound 0.01 µM): 0.741
- relative viability ([3]; first compound 0.03162 µM): 0.701
- relative viability ([3]; first compound 0.1 µM): 0.665
- relative viability ([3]; first compound 0.3162 µM): 0.623
- relative viability ([3]; first compound 1 µM): 0.429
- relative viability ([4]; first compound 0.01 µM): 0.357
- relative viability ([4]; first compound 0.03162 µM): 0.368
- relative viability ([4]; first compound 0.1 µM): 0.372
- relative viability ([4]; first compound 0.3162 µM): 0.432
- relative viability ([4]; first compound 1 µM): 0.396
- relative viability ([5]; first compound 0.01 µM): 0.781
- relative viability ([5]; first compound 0.03162 µM): 0.726
- relative viability ([5]; first compound 0.1 µM): 0.697
- relative viability ([5]; first compound 0.3162 µM): 0.788
- relative viability ([5]; first compound 1 µM): 0.726
- relative viability ([6]; first compound 0.01 µM): 0.623
- relative viability ([6]; first compound 0.03162 µM): 0.55
- relative viability ([6]; first compound 0.1 µM): 0.449
- relative viability ([6]; first compound 0.3162 µM): 0.463
- relative viability ([6]; first compound 1 µM): 0.268
- relative viability ([7]; first compound 0.01 µM): 0.978
- relative viability ([7]; first compound 0.03162 µM): 0.83
- relative viability ([7]; first compound 0.1 µM): 0.847
- relative viability ([7]; first compound 0.3162 µM): 0.946
- relative viability ([7]; first compound 1 µM): 0.793
- relative viability ([8]; first compound 0.01 µM): 0.936
- relative viability ([8]; first compound 0.03162 µM): 0.865
- relative viability ([8]; first compound 0.1 µM): 0.798
- relative viability ([8]; first compound 0.3162 µM): 0.262
- relative viability ([8]; first compound 1 µM): 0.129
- relative viability ([9]; first compound 0.01 µM): 0.771
- relative viability ([9]; first compound 0.03162 µM): 0.851
- relative viability ([9]; first compound 0.1 µM): 0.742
- relative viability ([9]; first compound 0.3162 µM): 0.673
- relative viability ([9]; first compound 1 µM): 0.386
- relative viability ([10]; first compound 0.01 µM): 0.521
- relative viability ([10]; first compound 0.03162 µM): 0.465
- relative viability ([10]; first compound 0.1 µM): 0.539
- relative viability ([10]; first compound 0.3162 µM): 0.507
- relative viability ([10]; first compound 1 µM): 0.486
- relative viability ([11]; first compound 0.01 µM): 0.24
- relative viability ([11]; first compound 0.03162 µM): 0.266
- relative viability ([11]; first compound 0.1 µM): 0.323
- relative viability ([11]; first compound 0.3162 µM): 0.285
- relative viability ([11]; first compound 1 µM): 0.232
- relative viability ([12]; first compound 0.01 µM): 0.263
- relative viability ([12]; first compound 0.03162 µM): 0.25
- relative viability ([12]; first compound 0.1 µM): 0.234
- relative viability ([12]; first compound 0.3162 µM): 0.22
- relative viability ([12]; first compound 1 µM): 0.199
- relative viability ([13]; first compound 0.01 µM): 0.793
- relative viability ([13]; first compound 0.03162 µM): 0.832
- relative viability ([13]; first compound 0.1 µM): 0.783
- relative viability ([13]; first compound 0.3162 µM): 0.748
- relative viability ([13]; first compound 1 µM): 0.424
- relative viability ([14]; first compound 0.01 µM): 0.489
- relative viability ([14]; first compound 0.03162 µM): 0.501
- relative viability ([14]; first compound 0.1 µM): 0.502
- relative viability ([14]; first compound 0.3162 µM): 0.455
- relative viability ([14]; first compound 1 µM): 0.487
- relative viability ([15]; first compound 0.01 µM): 0.379
- relative viability ([15]; first compound 0.03162 µM): 0.218
- relative viability ([15]; first compound 0.1 µM): 0.314
- relative viability ([15]; first compound 0.3162 µM): 0.254
- relative viability ([15]; first compound 1 µM): 0.0439
- relative viability ([16]; first compound 0.01 µM): 0.113
- relative viability ([16]; first compound 0.03162 µM): 0.107
- relative viability ([16]; first compound 0.1 µM): 0.12
- relative viability ([16]; first compound 0.3162 µM): 0.103
- relative viability ([16]; first compound 1 µM): 0.0534
- relative viability ([17]; first compound 0.01 µM): 0.393
- relative viability ([17]; first compound 0.03162 µM): 0.353
- relative viability ([17]; first compound 0.1 µM): 0.414
- relative viability ([17]; first compound 0.3162 µM): 0.394
- relative viability ([17]; first compound 1 µM): 0.255
- relative viability ([18]; first compound 0.01 µM): 0.41
- relative viability ([18]; first compound 0.03162 µM): 0.449
- relative viability ([18]; first compound 0.1 µM): 0.409
- relative viability ([18]; first compound 0.3162 µM): 0.394
- relative viability ([18]; first compound 1 µM): 0.372
- relative viability ([19]; first compound 0.01 µM): 0.621
- relative viability ([19]; first compound 0.03162 µM): 0.693
- relative viability ([19]; first compound 0.1 µM): 0.566
- relative viability ([19]; first compound 0.3162 µM): 0.666
- relative viability ([19]; first compound 1 µM): 0.532
- relative viability ([20]; first compound 0.01 µM): 0.144
- relative viability ([20]; first compound 0.03162 µM): 0.164
- relative viability ([20]; first compound 0.1 µM): 0.125
- relative viability ([20]; first compound 0.3162 µM): 0.119
- relative viability ([20]; first compound 1 µM): 0.0666
- relative viability ([21]; first compound 0.01 µM): 0.857
- relative viability ([21]; first compound 0.03162 µM): 0.703
- relative viability ([21]; first compound 0.1 µM): 0.688
- relative viability ([21]; first compound 0.3162 µM): 0.543
- relative viability ([21]; first compound 1 µM): 0.384
- relative viability ([22]; first compound 0.01 µM): 0.408
- relative viability ([22]; first compound 0.03162 µM): 0.41
- relative viability ([22]; first compound 0.1 µM): 0.439
- relative viability ([22]; first compound 0.3162 µM): 0.372
- relative viability ([22]; first compound 1 µM): 0.366
